Consider 31 compounds from patent US20200288710A1, “SUBSTITUTED SULPHONAMIDES FOR CONTROLLING ANIMAL PESTS” (BAYER CROPSCIENCE AKTIENGESELLSCHAFT, priority 2016, published 2020).

Read-outs that look alike come from different tables or passages of the source.

In data set [1] the test system is Myzus persicae. The data set can be described thus: Myzus persicae oral test. It is filed as in vivo. The following applies: 120 h, 20 ppm, oral uptake, after 5 days, read-out: efficacy. The method in brief:
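Compound dissolved in acetone, diluted in water, then mixed 50:150 μl with IPL41 insect medium (33%+15% sugar). Mixed-population green peach aphids feed through a parafilm seal on the solution; mortality scored as % efficacy after 5 days (100% = all killed).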

Data set [2] concerns Myzus persicae. The data set can be described thus: Myzus persicae spray test (Chinese cabbage leaf discs). It is filed as in vivo. The settings on record: foliar, 120 h, 500 g/ha, after 5-6 days, read-out: efficacy. The method in brief:
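Chinese cabbage leaf discs infested with all stages of green peach aphid were sprayed with compound formulated in acetone/DMF and emulsifier-containing water. Efficacy in % was scored after 5-6 days, with 100% meaning all aphids killed and 0% none killed.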

In another data set the test system is Musca domestica. The data set can be described thus: Musca domestica test. Type of data set: in vivo. The settings on record: 48 h, adult houseflies, after 2 days, read-out: efficacy (kill in %). Here is the method:
Musca domestica Test Solvent: dimethyl sulphoxide To produce a suitable preparation of active compound, 10 mg of active compound are mixed with 0.5 ml of dimethyl sulphoxide, and the concentrate is diluted with water to the desired concentration. Vessels containing a sponge treated with sugar solution and the active compound preparation of the desired concentration are populated with 10 adult houseflies (Musca domestica). After 2 days, the kill in % is determined. 100% means that all of the flies have been killed; 0% means that none of the flies have been killed.

Data set [3] in a line: log P by HPLC on reversed-phase column (EEC Directive 79/831 Annex V.A8). The following applies: reversed-phase HPLC column (C18). Type of data set: physicochemical. Here is the method:
The log P values were determined according to EEC Directive 79/831 Annex V.A8 by HPLC (highperformance liquid chromatography) on a reversed-phase column (C18). Temperature 43° C. The calibration is effected with unbranched alkan-2-ones (having 3 to 16 carbon atoms), for which the log P values are known. The determination of the M^+ by LC-MS in the acidic range was carried out at pH 2.7 using the mobile phases 0.1% aqueous formic acid and acetonitrile (contains 0.1% formic acid); linear gradient from 10% acetonitrile to 95% acetonitrile, instrument: Agilent 1100 LC system, Agilent MSD system, HTS PAL. The determination of the M^+ by LC-MS in the neutral range was carried out at pH 7.8 using the mobile phases 0.001 molar aqueous ammonium bicarbonate solution and acetonitrile; linear gradient from 10% acetonitrile to 95% acetonitrile. The log P values for the acidic range (as log P [a]) and/or for the neutral range (as log P [n]) were stated in the tables and preparation examples.

For a further data set, the system named is Phaedon cochleariae. Briefly: Phaedon cochleariae spray test. It is filed as in vivo. The following applies: foliar, 168 h, Chinese cabbage leaf discs, larvae, after 7 days, read-out: efficacy. The essentials:
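Compound dissolved in solvent and diluted with water containing 1000 ppm emulsifier to test concentrations. Efficacy read after 7 days as % beetle larvae killed (100% all killed, 0% none).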

A further data set has as its system Meloidogyne incognita. Briefly: Meloidogyne incognita test. It is filed as in vivo. The settings on record: 336 h, lettuce, after 14 days, read-out: nematicidal efficacy (formation of galls). The essentials: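 Active compound in acetone, diluted with water, added to sand-filled vessels with M. incognita eggs/larvae and lettuce seeds. After 14 days, efficacy scored by root gall formation: 100% = no galls, 0% = galls equal to untreated control.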

The test system of the next data set is Lucilia cuprina. The data set can be described thus: Lucilia cuprina test. Type of data set: in vivo. The following applies: 48 h, L1 larvae, after 2 days, read-out: efficacy (kill in %). Here is the method:
Lucilia cuprina Test Solvent: dimethyl sulphoxide To produce a suitable preparation of active compound, 10 mg of active compound are mixed with 0.5 ml of dimethyl sulphoxide, and the concentrate is diluted with water to the desired concentration. About 20 L1 larvae of the Australian sheep blowfly (Lucilia cuprina) are transferred into a test vessel containing minced horsemeat and the active compound preparation of the desired concentration. After 2 days, the kill in % is determined. 100% means that all the larvae have been killed; 0% means that no larvae have been killed.

Where [4] appears, read: neutral range, pH 7.8, HPLC C18, 43° C., read-out: log P (neutral).
The mark [5] stands for this setting: acidic range, pH 2.7, HPLC C18, 43° C., read-out: log P (acidic).

In the case of `COc1ccc(F)cc1S(=O)(=O)NC(=O)c1cn(C)c(-c2c(F)cccc2Cl)n1` [Example 155], the pest or weed control at 20 ppm in the data set on Myzus persicae [1] amounted to 100%. In addition, the pest or weed control at 500 g/ha in the data set on Myzus persicae [2] came out at 90%. In the data set on Musca domestica, the pest or weed control at 100 ppm was determined as 80%.

As for `Cn1c(C(=O)OC(C)(C)C)cnc1-c1c(F)cccc1F` [tert-butyl 2-(2,6-difluorophenyl)-1-methyl-1H-imidazole-5-carboxylate], the chromatographic logP in data set [3] (setting [4]) worked out at 3.

Consider `Cc1c(C(=O)O)nc(-c2c(F)cccc2F)n1C` [2-(2,6-difluorophenyl)-1,5-dimethyl-1H-imidazole-4-carboxylic acid], for which the chromatographic logP in data set [3] (setting [4]) stood at 2.

With `Cn1cc(C(=O)NS(=O)(=O)c2ccccc2Br)nc1-c1c(F)cccc1Cl` [Example 152], the pest or weed control at 20 ppm with Myzus persicae [1] and with Meloidogyne incognita was 100% each time. In addition, the figures for the pest or weed control at 500 g/ha in the data set with Phaedon cochleariae and with Myzus persicae [2] were 100% and 90%, respectively. Moreover, the pest or weed control at 100 ppm in the data set with Musca domestica was found to be 80%.

In the case of `Cn1c(C(=O)O)cnc1-c1c(F)cccc1F` [2-(2,6-difluorophenyl)-1-methyl-1H-imidazole-5-carboxylic acid], in data set [3] (setting [5]), the chromatographic logP was determined as 0.46.

For `Cn1cc(C(=O)NS(=O)(=O)c2ccc(Cl)cc2Cl)nc1-c1c(F)cccc1F` [Example 174], the pest or weed control at 20 ppm in the data set on Myzus persicae [1] and in the data set with Meloidogyne incognita was 100% throughout. Further, the figures for the pest or weed control at 500 g/ha in the data set on Phaedon cochleariae and in the data set with Myzus persicae [2] were 83% and 100%, respectively. Also, the pest or weed control at 100 ppm in the data set with Musca domestica was found to be 90%.

As to `Cc1cccc(Cl)c1S(=O)(=O)NC(=O)c1cn(C)c(-c2ncccc2Cl)n1` [Example 576], the pest or weed control at 20 ppm with Myzus persicae [1] was 100%. The pest or weed control at 100 ppm with Lucilia cuprina and in the data set on Musca domestica was 100% each time. Besides, the pest or weed control at 500 g/ha in the data set with Phaedon cochleariae and in the data set with Myzus persicae [2] was 100% each time.

In the case of `CCOC(=O)c1nc(-c2c(F)cccc2F)n(C)c1C` [ethyl 2-(2,6-difluorophenyl)-1,5-dimethyl-1H-imidazole-4-carboxylate], the chromatographic logP in data set [3] (setting [4]) was 2.

As for `Cn1cc(C(=O)NS(=O)(=O)c2cc(C(F)(F)F)ccc2Cl)nc1-c1ccccc1Cl` [Example 52], the pest or weed control at 20 ppm in the data set with Myzus persicae [1] turned out to be 100%; with Meloidogyne incognita, 90%. Besides, in the data set on Myzus persicae [2], the pest or weed control at 500 g/ha was found to be 90%. Moreover, the pest or weed control at 100 ppm in the data set on Musca domestica was determined as 80%.

`COc1cc(C(=O)O)nn1-c1ccccc1Cl` [1-(2-chlorophenyl)-5-methoxy-1H-pyrazole-3-carboxylic acid]: the chromatographic logP in data set [3] (setting [5]) was determined as 1.63.

For `Cn1cc(C(=O)OC(C)(C)C)nc1Br` [tert-butyl 2-bromo-1-methyl-1H-imidazole-4-carboxylate], the chromatographic logP in data set [3] (setting [5]) was found to be 2.41.

As to `Cn1cnc(C(=O)OC(C)(C)C)c1` [tert-butyl 1-methyl-1H-imidazole-4-carboxylate], the chromatographic logP in data set [3] (setting [5]) turned out to be 0.63.

Turning to `Cc1ccccc1S(=O)(=O)NC(=O)c1cn(C)c(-c2ccccc2F)n1` [Example 32], the values for the pest or weed control at 20 ppm in the data set with Myzus persicae [1] and in the data set with Meloidogyne incognita were 100% and 90%, respectively. Further, in the data set with Myzus persicae [2], the pest or weed control at 500 g/ha came out at 90%. The pest or weed control at 100 ppm in the data set on Musca domestica turned out to be 80%.

Take `Cn1cc(C(=O)OC(C)(C)C)nc1-c1c(F)cccc1F` [tert-butyl 2-(2,6-difluorophenyl)-1-methyl-1H-imidazole-4-carboxylate]: the chromatographic logP in data set [3] (setting [4]) stood at 2.3.

`COc1ccc(OC)c(S(=O)(=O)NC(=O)c2cn(C)c(-c3c(F)cccc3Cl)n2)c1` [Example 151]: the pest or weed control at 500 g/ha in the data set with Myzus persicae [2] stood at 100%. Further, the pest or weed control at 100 ppm with Musca domestica was 100%.

As to `Cn1cc(C(=O)O)nc1-c1c(F)cccc1F` [2-(2,6-difluorophenyl)-1-methyl-1H-imidazole-4-carboxylic acid], the chromatographic logP in data set [3] (setting [4]) amounted to 2.3.

Regarding `COc1ccc(Br)c(S(=O)(=O)NC(=O)c2cn(C)c(-c3c(F)cccc3Cl)n2)c1` [Example 153], the pest or weed control at 20 ppm in the data set on Myzus persicae [1] came to 100%; with Meloidogyne incognita it was 90%. Moreover, the pest or weed control at 500 g/ha in the data set with Phaedon cochleariae and in the data set with Myzus persicae [2] was 100% throughout. Moreover, in the data set on Musca domestica, the pest or weed control at 100 ppm worked out at 80%.

On to `CCc1[nH]c(-c2c(F)cccc2F)nc1C(=O)O` [2-(2,6-difluorophenyl)-5-ethyl-1H-imidazole-4-carboxylic acid], for which the chromatographic logP in data set [3] (setting [4]) was found to be 0.45.

Regarding `CCOC(=O)c1ncn(C)c1C` [ethyl 1,5-dimethyl-1H-imidazole-4-carboxylate], in data set [3] (setting [4]), the chromatographic logP was found to be 0.85.

In the case of `CCOC(=O)c1nc(Br)n(C)c1C` [Ethyl 2-Bromo-1,5-Dimethyl-1H-Imidazole-4-Carboxylate], in data set [3] (setting [4]), the chromatographic logP turned out to be 1.69.

On to `Cn1c(C(=O)OC(C)(C)C)cnc1Br` [tert-butyl 2-bromo-1-methyl-1H-imidazole-5-carboxylate], for which the chromatographic logP in data set [3] (setting [4]) was found to be 2.54.

Turning to `Cc1ccccc1S(=O)(=O)NC(=O)c1nc(-c2ccccc2Cl)n(C)c1Cl` [5-chloro-2-(2-chlorophenyl)-1-methyl-N-[(2-methylphenyl)sulphonyl]-1 Himidazole-4-carboxamide], the chromatographic logP in data set [3] (setting [5]) is 3.17.

Take `CCc1ccccc1S(=O)(=O)NC(=O)c1cn(C)c(-c2c(F)cccc2F)n1` [Example 185]: the values for the pest or weed control at 20 ppm in the data set on Myzus persicae [1] and with Meloidogyne incognita were 100% and 90%, respectively. In addition, the pest or weed control at 500 g/ha in the data set on Myzus persicae [2] was 100%. Also, the pest or weed control at 100 ppm with Musca domestica amounted to 80%.

Regarding `CCc1cccc(C(F)(F)F)c1S(=O)(=O)NC(=O)c1cn(C)c(-c2c(F)cccc2F)n1` [Example 337], the pest or weed control at 20 ppm in the data set on Myzus persicae [1] amounted to 100%; with Meloidogyne incognita, 90%. Besides, the values for the pest or weed control at 500 g/ha in the data set on Phaedon cochleariae and in the data set on Myzus persicae [2] were 100% and 90%, respectively. For the same compound, the pest or weed control at 100 ppm in the data set with Musca domestica is 80%.

Turning to `Cn1cc(C(=O)NS(=O)(=O)c2ccc(Cl)cc2Cl)nc1-c1ccccc1Cl` [Example 231], the pest or weed control at 100 ppm with Lucilia cuprina and in the data set on Musca domestica was 100% in each case. The pest or weed control at 500 g/ha in the data set on Phaedon cochleariae was 100%; in the data set with Myzus persicae [2], 90%. In the data set on Meloidogyne incognita, the pest or weed control at 20 ppm amounted to 100%.

In the case of `CCOC(=O)c1nc(-c2c(F)cccc2F)[nH]c1CC` [ethyl 2-(2,6-difluorophenyl)-5-ethyl-1H-imidazole-4-carboxylate], the chromatographic logP in data set [3] (setting [5]) is 1.73.

Take `Cn1cncc1C(=O)OC(C)(C)C` [tert-butyl 1-methyl-1H-imidazole-5-carboxylate]: the chromatographic logP in data set [3] (setting [4]) is 1.71.

For the compound `CCOC(=O)c1cc(OC)n(-c2ccccc2Cl)n1` [ethyl 1-(2-chlorophenyl)-5-methoxy-1H-pyrazole-3-carboxylate], the chromatographic logP in data set [3] (setting [5]) came out at 2.61.

For `CCOC(=O)c1cc(O)n(-c2ccccc2Cl)n1` [ethyl 1-(2-chlorophenyl)-5-hydroxy-1H-pyrazole-3-carboxylate], in data set [3] (setting [5]), the chromatographic logP is 1.75.

Consider `Cc1ccc(Cl)cc1S(=O)(=O)NC(=O)c1cn(C)c(-c2c(F)cccc2F)n1` [Example 172], for which the pest or weed control at 20 ppm with Myzus persicae [1] and with Meloidogyne incognita was 100% each time. The pest or weed control at 500 g/ha with Phaedon cochleariae is 100%; in the data set with Myzus persicae [2], 90%. Further, in the data set with Musca domestica, the pest or weed control at 100 ppm amounted to 90%.

Take `COc1ccc(Cl)c(S(=O)(=O)NC(=O)c2cn(C)c(-c3c(F)cccc3Cl)n2)c1` [Example 107]: in the data set with Myzus persicae [1], the pest or weed control at 20 ppm is 100%. Further, the pest or weed control at 100 ppm in the data set on Lucilia cuprina and in the data set with Musca domestica was 100% each time. Besides, the pest or weed control at 500 g/ha in the data set on Phaedon cochleariae and in the data set with Myzus persicae [2] was 100% in each case.
